Results taken from patent US8415505B2, “2-methylene-5-substituted-methylenecyclopentanone derivatives and use thereof” (Shenyang Pharmaceutical University, priority 2008, dated 2013).
pIC50: −log10 of the molar value. Read-outs that look alike come from different tables or passages of the source.

Columns and labels:
[1] = tested on: Human breast cancer cells MDA-MB231; assay: In vitro antitumor activity test (MTT), MDA-MB231; assay type: cell-based; conditions: 4 days culture with drug, growth inhibition, read-out: IC50 (μmol/L) MDA-MB231
Method: (§1) In Vitro Antitumor Activity Test
(§2) Cells were taken out carefully from liquid nitrogen (Frozen pipes), and the cell freezing medium was thawed rapidly in water bath at 37° C. in order to rapidly pass the temperature range of 0˜5° C. within which the cell is easily damaged. Cell suspension was sucked with pipette gun and put it into centrifuge tubes under a sterile condition, then centrifuged for 3 min at 1300 r/min. The supernatant was gently discarded, and then added with a fresh medium to pipette and mix the cells. Finally, the cells were transferred into culture flasks and cultured in a carbon dioxide incubator. The medium was changed once after 24 h.
(§3) Human prostate cancer cells (DU145, PC-3) were cultured in RPMI1640 medium containing 10% fetal bovine serum inactivated by heating, 100 IU/mL penicillin, 100 μg/mL streptomycin and 1 mmol/L L-glutamine. Human breast cancer cells (T47D, MDA-MB231) were cultured in RPMI1640 medium containing 10% fetal bovine serum inactivated by heating, 5 μg/mL insulin, 100 IU/mL penicillin, 100 μg/mL streptomycin, and 1 mmol/L L-glutamine. Human breast cancer cells (MCF-7) were cultured in DMEM culture medium containing 10% fetal bovine serum inactivated by heating, 5 μg/mL insulin, 100 IU/mL penicillin, 100 μg/mL streptomycin and […] L-glutamine. Mouse Lewis lung carcinoma cells (LL/2) and mouse melanoma cells (B16F0) were cultured in DMEM culture medium containing 10% fetal bovine serum inactivated by heating, 4.5 g/L glucose, 1.5 g/L NaHCO3, 100 IU/mL penicillin, 100 μg/mL streptomycin and 4 mmol/L L-glutamine. All of the above cell lines were incubated in 37° C. incubator with 5% carbon dioxide saturated humidity
(§4) After 2-3 cycles of cell culture and passage after the cell thawing, the cells were stable and ready for the experiment. The flask bottom should be covered with cells in each cell passage.
(§5) Trypsin solution (0.25%) was applied to digest the cells off the flask bottom when the flask bottom was covered with cells. The digested cell solution was moved to the centrifuge tubes and culture medium was added to stop the digestion; centrifuged for 3 min at 1300 r/min conditions; gently discarded the supernatant, and then added 5 mL medium, pipetted and mixed the cells; added 10 μL of the cell suspension to the cell count plate to count; adjusted the cell concentration to 2×10^4/mL; added 100 μL cell suspension to all wells of the 96 well plate except A1 well which acts as a blank; and placed the 96 well plate in an incubator to culture 24 h and to make sure the cells growing and attached on the wells.
(§6) First formulated the medicine in 16 mmol/L of DMSO storage solution; then diluted the solution with ethanol to 1.6 mmol/L solution; then further diluted with cell culture medium to 32 μmol/L, 16 μmol/L, 8 μmol/L, 4 μmol/L, 2 μmol/L and 1 μmol/L, and added to 96 well plate; 100 μl drug solution were added to each well, thus the final drug concentrations of cells were 16 μmol/L, 8 μmol/L, 4 μmol/L, 2 μmol/L, 1 μmol/L, and 0.5 μmol/L; 3 parallel wells were set for each concentration and placed the 96 well plate was placed into an incubator to continuously culture for 4 days
(§7) Added to each well of the 96 well plate with 50 μL of MTT (2 mg/mL); discarded the MTT (tetrazolium) solution after 4 h incubation in an incubator, then added 200 μL of DMSO; shaking the 96 well plate in a magnetic shaker for 10 min to make sure that the reaction product of the living cells and the MTT, i.e. formazan, was fully dissolved; measured the absorbance value (OD) in microplate reader at the selected 570 nm wavelength, and recorded results. Using the OD values of the cells that were not added with drugs as control, the cell growth inhibition ratio at each test concentration was calculated by using the following formula. Herein, the cancer cell growth inhibition is expressed as the half of the growth inhibitory concentration (IG50 Value) (i.e., the tested drug concentration resulting in 50% cell growth inhibition). […]

[2] = tested on: Human breast cancer cells T47D; assay: In vitro antitumor activity test (MTT), T47D; assay type: cell-based; conditions: 4 days culture with drug, growth inhibition, read-out: IC50 (μmol/L) T47D
Method: as §1, §2, §3, §4, §5, §6, §7

Acute toxicity test = conditions: both sexes, mouse, in vivo, ip; Kunming mice, intraperitoneal injection, observed one week after administration, weighted regression method
Method: Animals: healthy Kunming mice, half male and half female, weighed 18-22 g. Animals were provided from Experimental Animal Center of Shenyang Pharmaceutical University. Certificate of Conformity: Real co-Zi Liao No. 033
Name of tested drugs: Example 13, Example 14
Drug preparation: Suspension formulated with 0.2% polysorbate 80 (Tween-80). Dosage to subject is expressed as mg/kg.
Route of administration: Intraperitoneal injection; injection volume was 0.1 ml/10 g, with one time multi-dose administration.
Test cycle and measurement: Observed one week after the administration; recorded toxic reactions in mice daily during observation, with the death of mice as the main indicator. Half lethal dose (LD50, mg/kg) of the administration of compound after a week can be obtained according to weighted regression method.

[3] = tested on: Human prostate cancer cells DU145; assay: In vitro antitumor activity test (MTT), DU145; assay type: cell-based; conditions: DU-145, 96 h, 4 days culture with drug, growth inhibition, read-out: IC50 (μmol/L) DU145
Method: as §1
as §2, with “h. […]” for “h.”
(§8) After 2-3 cycles of cell culture and passage after the cell thawing, the cells were stable and ready for the experiment. […]
(§9) Added to each well of the 96 well plate with 50 μL of MTT (2 mg/mL); discarded the MTT (tetrazolium) solution after 4 h incubation in an incubator, then added 200 μL of DMSO; shaking the 96 well plate in a magnetic shaker for 10 min to make sure that the reaction product of the living cells and the MTT, i.e. formazan, was fully dissolved; measured the absorbance value (OD) in microplate reader at the selected 570 nm wavelength, and recorded results. […]

[4] = tested on: Mouse Lewis lung carcinoma cells (LL/2); assay: In vitro antitumor activity test (MTT), LL/2; assay type: cell-based; conditions: 96 h, LL/2 cells, 4 days culture with drug, growth inhibition, read-out: IC50 (μmol/L) LL/2
Method: as §1
as §2, with “h. […]” for “h.”
as §8, §9

[5] = tested on: mouse melanoma cells (B16F0); assay: In vitro antitumor activity test (MTT), B16F0; assay type: cell-based; conditions: B16F0, 96 h, B16FD cells (head), 4 days culture with drug, growth inhibition, read-out: IC50 (μmol/L) B16FD
Method: as §1
as §2, with “h. […]” for “h.”
as §8, §9

[6] = tested on: Human breast cancer cells MCF-7; assay: In vitro antitumor activity test (MTT), MCF-7; assay type: cell-based; conditions: MCF7, 96 h, MCF-7 cells, 4 days culture with drug, growth inhibition, read-out: IC50 (μmol/L) MCF-7
Method: as §1
as §2, with “h. […]” for “h.”
as §8, §9

[7] = tested on: Human prostate cancer cells PC-3; assay: In vitro antitumor activity test (MTT), PC-3; assay type: cell-based; conditions: 96 h, PC-3 cells, 4 days culture with drug, growth inhibition, read-out: IC50 (μmol/L) PC-3
Method: as §1
as §2, with “h. […]” for “h.”
as §8, §9

Row | SMILES | pIC50 ([1]; Homo sapiens, MDA-MB-231, 96 h) | pIC50 ([2]; Homo sapiens, 96 h) | other results
1 | C=C1CCC(=C(c2ccc(C)cc2)c2ccc(C)cc2)C1=O [Example 26, 2-methylene-5-[bis(4-methylphenyl)-methylene]cyclopentanone] | 5.13 | 5.36 | 
2 | C=C1CCC(=Cc2ccc(OC)c(O)c2)C1=O [Example 13, 2-methylene-5-(3-hydroxy-4-methoxybenzylidene)cyclopentanone] | 5.60 | 6.19 | LD50 at 1 week (Acute toxicity test): 22.4 mg/kg; pIC50 [3]: 5.53; pIC50 [4]: 5.29; pIC50 [5]: 5.47; pIC50 [6]: 5.92; pIC50 [7]: 5.70
3 | C=C1CCC(=Cc2ccc(OC)cc2O)C1=O [Example 12, 2-methylene-5-(2-hydroxy-4-methoxybenzylidene)cyclopentanone] | 5.33 | 5.89 | 
4 | C=C1CCC(=Cc2cc(OC)c(O)c(OC)c2)C1=O [Example 19, 2-methylene-5-(3,5-dimethoxy-4-hydroxybenzylidene) cyclopentanone] | 5.46 | 5.55 | 
5 | C=C1CCC(=Cc2ccccc2O)C1=O [Example 24, 2-methylene-5-(2-hydroxybenzylidene)cyclopentanone] | 5.26 | 5.30 | 
6 | C=C1CCC(=Cc2ccc(OCCC)cc2)C1=O [Example 9, 2-methylene-5-(4-propoxybenzylidene)cyclopentanone] | < 4.80 | < 4.80 | 
7 | C=C1CCC(=Cc2cccc(OC)c2OC)C1=O [Example 15, 2-methylene-5-(2,3-dimethoxybenzylidene)cyclopentanone] | < 4.80 | < 4.80 | 
8 | C=C1CCC(=Cc2ccc(OC)cc2OC)C1=O [Example 16, 2-methylene-5-(2,4-dimethoxybenzylidene)cyclopentanone] | 5.12 | < 4.80 | 
9 | C=C1CCC(=Cc2ccc(N(C)C)cc2)C1=O [Example 11, 2-methylene-5-(4-N,N-dimethylbenzylidene)cyclopentanone] |  |  | pIC50 [1]: 5.07; pIC50 [2]: 5.85
10 | C=C1CCC(=Cc2ccc(S(C)(=O)=O)cc2)C1=O [Example 10, 2-methylene-5-(4-methanesulfonylbenzylidene)cyclopentanone] | 5.30 | 5.79 | 
11 | C=C1CCC(=Cc2cc(C(C)(C)C)c(O)c(C(C)(C)C)c2)C1=O [Example 20, 2-methylene-5-[3,5-di(t-butyl)-4-hydroxybenzylidene]-cyclopentanone] | 4.83 | 5.27 | 
12 | C=C1CCC(=Cc2ccc(O)cc2)C1=O [Example 23, 2-methylene-5-(4-hydroxybenzylidene)cyclopentanone] | 5.22 | < 4.80 | 
13 | C=C1CCC(=Cc2ccccc2OC)C1=O [Example 7, 2-methylene-5-(2-methoxybenzylidene)cyclopentanone] | 4.94 | 5.41 | 
14 | C=C1CCC(=Cc2ccc(OC)c(OC)c2)C1=O [Example 17, 2-methylene-5-(3,4-dimethoxybenzylidene)cyclopentanone] | 5.59 | 5.58 | 
15 | C=C1CCC(=Cc2cc(OC)c(OC)c(OC)c2)C1=O [Example 21, 2-methylene-5-(3,4,5-trimethoxybenzylidene)cyclopentanone] | 5.11 | 5.56 | 
16 | C=C1CCC(=C(c2ccc(F)cc2)c2ccc(F)cc2)C1=O [Example 27, 2-methene-5-[bis(4-fluorophenyl)-methylene]cyclopentanone] |  |  | pIC50 [1]: < 4.80
17 | C=C1CCC(=Cc2ccc(OCC)cc2)C1=O [Example 8, 2-methylene-5-(4-ethoxybenzylidene)cyclopentanone] | 5.34 | 5.20 | 
18 | C=C1CCC(=Cc2ccc(OC)cc2)C1=O [Example 2, 2-methylene-5-(4-methoxybenzylidene)-cyclopentanone] | < 4.80 | < 4.80 | 
19 | C=C1CCC(=Cc2ccc3c(c2)OCO3)C1=O [Example 18, 2-methylene-5-(3,4-methylenedioxybenzylidene)cyclopentanone] | 5.18 | 5.31 | 
20 | C=C1CCC(=Cc2ccc(O)c(OC)c2)C1=O [Example 14, 2-methylene-5-(4-hydroxy-3-methoxybenzylidene)cyclopentanone] | 5.49 | 6.01 | LD50 at 1 week (Acute toxicity test): 35.2 mg/kg; pIC50 [3]: 5.61; pIC50 [4]: 5.19; pIC50 [5]: 5.36; pIC50 [6]: 5.98; pIC50 [7]: 5.75
21 | C=C1CCC(=C(c2ccccc2)c2ccccc2)C1=O [Example 25, 2-methylene-5-diphenylmethylenecyclopentanone] | < 4.80 | 5.14 | 
22 | C=C1CCC(=CCC(C)C)C1=O [Example 22, 2-methylene-5-(3-methylbutylidene)cyclopentanone] | < 4.80 | < 4.80 | 
